Laboratory results published in US9446015B2, “Quinone based nitric oxide donating compounds for ophthalmic use” (NICOX SCIENCE IRELAND, priority 2012, dated 2016).

Assays:
[1] = system: endothelial-dependent vasodilation of rat aortas; assay: Endothelial dysfunction evaluation, vascular response to acetylcholine; type: cell-based; conditions: 5-day treatment; 5-ISMN 30 mg/kg, Compound (6) 100 mg/kg
Procedure: Thoracic aortas from male New Zealand rabbits or male Sprague Dawley (SD) were used. The aortas were placed immediately in Krebs-HEPES buffer (pH 7.4; composition mM: NaCl 130.0, KCl 3.7, NaHCO3 14.9, KH2PO4 1.2, MgSO4.7H2O 1.2, Glucose 11.0, HEPES 10.0, CaCl2.2H2O 1.6). Connective tissue was removed and aortas were cut into ring segments (4-5 mm in length). Each ring was placed in a 5 mL tissue bath filled with Krebs-HEPES buffer (37° C.) aerated with 95% O2 and 5% CO2 and was attached to a force transducer (Grass FT03), connected to a BIOPAC MP150 System for measurement of the isometric tension. Preparations were allowed to equilibrate for 1 h at a resting tension of 2 g for rabbit aortas and 1 g for rat aortas with changes of the buffer every 15 min. Then the rings were stimulated by exposure to 90 mM KCl (3 times) with intervening washings.
Rat aorta. After equilibration, rat aortas were precontracted with KCl (90 mM) and, when the contraction was stable, a cumulative concentration-response curve to acetylcholine (ACh, 0.01-100 μM) was added. After washout, the rings were precontracted again with KCl (90 mM). When a steady-state level of contraction was obtained, a cumulative concentration-response curve to the tested compounds (0.01-100 μM) was obtained.
Data analysis. Results are given as mean±SEM. Vascular responses are expressed as percentage relaxation and plotted vs concentration. The sensitivity of isolated aorta to different vasodilators is expressed as the concentration that elicited 50% of the maximal responses (EC50). Responses are quantified in terms of EC50 and Emax (maximal vasodilating effect) values, obtained from the concentration-response curve by nonlinear curve fitting, using GraphPad software.
Endothelial-dependent vasodilation (vascular response to acetylcholine, ACh) was assessed following 5-day treatment with Compound (6) (100 mg/kg) or 5-ISMN (30 mg/kg). A relaxant response to ACh indicated the presence of a functional endothelium. The vascular response was performed as described in Example 6.

[2] = system: lipidic peroxidation of membrane lipids in rat hepatocytes (hepatic microsomal membranes); assay: In vitro antioxidant activity (TBARS test); type: biochemical; conditions: Method A (ADP-FeCl3 and NADPH); inhibition of TBARS production after 30 min; read-out: Antioxidant activity IC50 μM (CL 95%)
Procedure: The antioxidant properties of compounds (6) (disclosed in example 1) and compound (23) (disclosed in example 19) and reference antioxidant compounds were assessed after NADPH-induced lipidic peroxidation of membrane lipids in rat hepatocytes using the detection of 2-thiobarbituric acid reactive substances (TBARS) by visible spectroscopy.
Hepatic microsomal membranes from male Wistar rats (200-250 g) were prepared by differential centrifugation (8000 g, 20 min; 120000 g, 1 h) in a HEPES/sucrose buffer (10 mM, 250 mM, pH 7.4) and stored at −80° C. Incubation was performed at 37° C. in a Tris-HCl/KCl (100 mM/150 mM, pH 7.4) containing microsomal membranes (2 mg prot/mL), sodium ascorbate (100 μM), and DMSO solutions of the tested compounds. Lipid peroxidation was initiated by adding ADP-FeCl3 and NADPH (Method A) or 2.5 μM FeSO4 (Method B) (as described by Boschi D. et al., J. Med. Chem. 2006, 49:2886-2897). Aliquots were taken from the incubation mixture at 5, 15, and 30 min and treated with trichloroacetic acid (TCA) 10% w/v. Lipid peroxidation was assessed by spectrophotometric (543 nm) determination of the TBARS consisting mainly of malondialdehyde (MDA). TBARS concentrations (expressed in nmol/mg protein) were obtained by interpolation with a MDA standard curve. The antioxidant activity of tested compounds was evaluated as the percent inhibition of TBARS production with respect to control samples, using the values obtained after 30 min of incubation. IC50 values were calculated by nonlinear regression analysis.

With COC1=C(OC)C(=O)C(CCCCCCCCCCO[N+](=O)[O-])=C(C)C1=O [Compound (6), 10-(4,5-dimethoxy-2-methyl-3,6-dioxocyclohexa-1,4-dienyl)decyl nitrate] the “effect on endothelial-dependent vasorelaxation (response to ACh)” value [1] was “did not modify endothelial-dependent vasorelaxation” and the IC50 [2] was 2 µM.
